Data reported in US20260335279A1, “METHODS OF TREATING ISCHEMIA-REPERFUSION INJURIES” (University of Cincinnati, priority 2022, published 2026).

Experiments:
[1] = test system: myocardial ischemia-reperfusion injury in mice; assay: Infarct size evaluation upon Evans Blue/TTC staining after myocardial I/R; assay type: in vivo, mouse (C57BL/6)
Protocol: (§1) The myocardial ischemia/reperfusion surgical protocol was applied as follows. Mice were anesthetized with 2% isoflurane inhalation until anesthesia was achieved. The animals' body temperature was maintained at 37 °C throughout the surgical procedure using a heating pad. A tracheal tube was placed via tracheal intubation and the respiration rate was set at 150 strokes/min with a tidal volume of 200 μL, using Minivent ventilator for mice (Model 845, Harvard Apparatus). A 1.2 cm incision was made over the left chest. After retraction of the pectoral major and minor muscles, the fourth intercostal space was exposed. […] The left anterior descending coronary artery (LAD) was then located, sutured, and ligated at a site 3-4 mm distal to the origin of the artery under the left atrium using a 6-0 silk suture. The heart was allowed to stabilize for 15 min and right after, ischemia was induced by tightening the suture against a small piece of polyethylene tube. At the end of the 30-minute ischemia period, the ligature was released for the induction of reperfusion, and then the manual evacuation of air and closure of muscle and skin were performed. The mouse was then monitored during the recovery period, which was generally completed within 3 to 5 minutes. Sustain-released buprenorphine (BupSR, 0.5 mg/kg body weight) was provided by subcutaneous injection. Mice were then left to recover until the end of the reperfusion (2 hours, 12 hours, 24 hours, or 4 weeks). The sham group underwent the same surgical procedure except that the LAD was not occluded.
Double staining of the heart with Evans Blue dye and Triphenyl-Tetrazolium Chloride (TTC) solution was employed for infarct size measurements. Mice were anesthetized upon 3% isoflurane inhalation. The thorax was cut and opened, and hearts were gently excised. Then, the aorta was cannulated and perfused with 5 mL of normal saline. The suture was re-tightened and Evans Blue solution (2.5% in WFI) was slowly infused through the aorta, to differentiate the ischemic part of the myocardium from the non-occluded, normally perfused area. The hearts were sliced into 1-2 mm sections immediately following. The heart slices were incubated with TTC solution (1% in PBS, pH=7.4) at 37 °C for 20 min. In this way, the necrotic area is delimited as a white area, while the viable tissue is stained red. […] The overall size of each slice (All/A), the area-at-risk (R), and the infarct area (I) were determined in a blinded manner for each slice using ImageJ software, and the percentages of Area at Risk (R/A) % and I/R % were calculated. […]
Administration of these two compounds was performed 5 minutes before the reopening of the coronary artery and infarct size was assessed upon 30 minutes of ischemia followed by 24 hours of reperfusion therapy.

KLF5 promoter = conditions: colorectal cancer cell lines; Bialkowska 2011; cited from earlier work
KLF5 [2] = conditions: colorectal cancer cell lines; Bialkowska 2011; cited from earlier work
[3] = test system: reactive oxygen species in myocardium; assay: DHE staining of myocardium (superoxide detection, oxidative stress) after I/R; assay type: in vivo, mouse (C57BL/6); conditions: 2 h reperfusion; apocynin 5 mg/kg/12 h or GLX351322 3.8 mg/kg/12 h, intraperitoneal, at early reperfusion
Protocol: as §1, with “Sustain-released buprenorphine (BupSR, 0.5 mg/kg body weight) was provided by subcutaneous injection. Mice were then left to recover until the end of the reperfusion (2 hours, 12 hours, 24 hours, or 4 weeks). The sham group underwent the same surgical procedure except that the LAD was not occluded.” left out
Live myocardium was isolated from mice at the time of euthanasia and stained with 20 μM dihydroethidium (DHE) for 30 min at room temperature. […] Individual nuclei were measured within each visual field using ImageJ software, and visual fields were averaged to measure mean fluorescence intensity for each mouse.
In order to unravel the mechanisms of KLF5-mediated cardiotoxicity, oxidative stress levels were evaluated at early reperfusion. […] Given the fact that inflammation and diapedesis of immune cells are important hallmarks of the post-ischemia-reperfusion response, the mRNA levels of IL-1α, IL-1β, IL-6, IL-10, and TNFα in the ischemic myocardium upon ML264 treatment were evaluated at 2 hours of reperfusion (FIGS. 51-5M) and 24 hours of reperfusion (FIGS. 5N-5Q). […]

NOX4 = conditions: cited from earlier work
KLF5 [4] = conditions: cited from earlier work
[5] = apocynin 5 mg/kg/12 h or GLX351322 3.8 mg/kg/12 h, intraperitoneal, at early reperfusion, vs vehicle

With `CC(C)(C)c1ccc(S(=O)(=O)NCc2ccc(C(=O)Nc3cccnc3)cc2)cc1` [STF-31] the infarct size ([1]; GLUT inhibitors 5 min before reopening of coronary artery, 30 min ischemia, 24 h reperfusion) was “not by STF-31 treatment”.
For `CC(C)(C)c1cc(C=C(C#N)C#N)cc(C(C)(C)C)c1O` [AG17], the KLF5 promoter activity (KLF5 promoter) is listed as “reduce” and the KLF5 protein level (KLF5 [2]) is listed as “reduce”.
In the case of `COc1cc(C(C)=O)ccc1O` [apocynin, acetovanillone], the infarct size [1, 5] is reported as “significant reduction” and the “oxidative stress (DHE staining)” value [3] is reported as “significant suppression”.
In the case of `CCOC(=O)c1c(NC(=O)CN2CCN(C(=O)c3ccco3)CC2)sc2c1CCC2` [GLX-351322], the infarct size [1, 5] is listed as “significant reduction”, the “oxidative stress (DHE staining)” value [3] is listed as “significant suppression” and the “hydrogen peroxide production from NOX4-overexpressing cells” value (NOX4) is listed as “inhibits”.
For `CC(C)(C)c1cc(/C=C(\C#N)C(N)=S)cc(C(C)(C)C)c1O` [AG879], the “inhibition of KLF5” value (KLF5 [4]) is listed as “inhibit”.
